Results: patent US11339130B1 (Blade Therapeutics, Inc., priority 2016, dated 2022)
Where two headings read alike, the source gives them in different places.

Key:
Human Calpain 2/NS1 = target: T1, Human Calpain 2/NS1 (Homo sapiens, UniProt P17655); assay: Calpain inhibition continuous fluorescence (FRET) assay, Human Calpain 2/NS1; format: biochemical; details: read-out: Human Calpain 2/NS1 IC50
T1 sequence (P17655 1-700): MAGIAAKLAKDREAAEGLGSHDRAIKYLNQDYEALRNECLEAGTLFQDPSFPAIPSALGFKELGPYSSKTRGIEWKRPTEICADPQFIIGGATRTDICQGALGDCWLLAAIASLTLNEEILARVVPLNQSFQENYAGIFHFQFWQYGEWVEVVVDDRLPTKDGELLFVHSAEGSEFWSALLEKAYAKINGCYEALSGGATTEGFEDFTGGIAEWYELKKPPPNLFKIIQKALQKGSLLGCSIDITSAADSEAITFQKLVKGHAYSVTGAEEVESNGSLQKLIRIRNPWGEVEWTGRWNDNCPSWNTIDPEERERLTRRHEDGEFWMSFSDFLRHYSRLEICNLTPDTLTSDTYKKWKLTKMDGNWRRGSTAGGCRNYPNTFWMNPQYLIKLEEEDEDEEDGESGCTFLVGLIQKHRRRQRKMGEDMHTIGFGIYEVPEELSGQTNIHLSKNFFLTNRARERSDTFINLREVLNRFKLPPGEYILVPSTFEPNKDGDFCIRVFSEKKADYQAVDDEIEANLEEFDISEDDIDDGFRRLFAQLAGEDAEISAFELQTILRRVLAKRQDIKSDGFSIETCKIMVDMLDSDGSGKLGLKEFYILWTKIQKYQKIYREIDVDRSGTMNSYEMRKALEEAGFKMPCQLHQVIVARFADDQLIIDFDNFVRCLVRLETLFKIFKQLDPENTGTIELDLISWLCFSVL
T1 sequence (P04632 1-268 partner): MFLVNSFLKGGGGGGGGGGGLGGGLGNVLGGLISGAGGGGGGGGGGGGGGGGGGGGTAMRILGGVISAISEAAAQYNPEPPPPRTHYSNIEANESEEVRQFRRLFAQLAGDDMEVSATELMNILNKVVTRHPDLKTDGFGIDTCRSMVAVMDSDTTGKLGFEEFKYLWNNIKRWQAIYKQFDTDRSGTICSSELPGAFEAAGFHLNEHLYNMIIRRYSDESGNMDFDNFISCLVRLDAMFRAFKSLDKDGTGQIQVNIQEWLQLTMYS
Method in brief: (§1)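 Calpain activity is measured kinetically with a quenched FRET peptide in 50 mM Tris pH 7.5, 100 mM NaCl, 1 mM DTT, with CaCl2 triggering activation. Rates over 1-5 min are plotted against log inhibitor to obtain IC50 by 4-parameter logistic fitting.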

[1] = tested on: Calpain activity in SH-SY5Y cells; assay: SH-SY5Y + AMC fluorescence assay (Suc-LLVY-AMC substrate); format: cell-based
Human Calpain 9/NS1 = target: T2, Human Calpain 9/NS1 (Homo sapiens, UniProt O14815); assay: Calpain inhibition continuous fluorescence (FRET) assay, Human Calpain 9/NS1; format: biochemical; details: read-out: Human Calpain 9/NS1 IC50
T2 sequence (O14815 1-690): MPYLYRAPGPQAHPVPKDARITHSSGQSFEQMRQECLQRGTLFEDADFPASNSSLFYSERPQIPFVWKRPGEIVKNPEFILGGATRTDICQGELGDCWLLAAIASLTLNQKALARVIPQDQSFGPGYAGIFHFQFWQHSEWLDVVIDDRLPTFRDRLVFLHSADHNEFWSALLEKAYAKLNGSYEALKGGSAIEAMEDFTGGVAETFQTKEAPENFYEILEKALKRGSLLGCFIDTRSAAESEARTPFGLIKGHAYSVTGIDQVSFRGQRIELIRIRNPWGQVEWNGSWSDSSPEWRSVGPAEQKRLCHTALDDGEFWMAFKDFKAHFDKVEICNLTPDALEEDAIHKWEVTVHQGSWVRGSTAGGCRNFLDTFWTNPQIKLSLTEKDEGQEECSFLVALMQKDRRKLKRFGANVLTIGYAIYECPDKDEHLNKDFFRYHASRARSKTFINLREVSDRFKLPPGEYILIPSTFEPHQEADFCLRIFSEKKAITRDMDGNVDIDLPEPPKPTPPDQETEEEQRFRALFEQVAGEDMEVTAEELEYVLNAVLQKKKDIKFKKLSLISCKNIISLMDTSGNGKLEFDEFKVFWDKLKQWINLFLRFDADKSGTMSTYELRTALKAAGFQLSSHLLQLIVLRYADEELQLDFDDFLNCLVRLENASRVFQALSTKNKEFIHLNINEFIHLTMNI
T2 sequence (P04632 1-268 partner): T1 sequence (P04632 1-268 partner)
Method in brief: as §1

Human Calpain 1/NS1 = target: T3, Human Calpain 1/NS1 (Homo sapiens, UniProt P07384); assay: Calpain inhibition continuous fluorescence (FRET) assay, Human Calpain 1/NS1; format: biochemical; details: read-out: Human Calpain 1/NS1 IC50
T3 sequence (P07384 1-714): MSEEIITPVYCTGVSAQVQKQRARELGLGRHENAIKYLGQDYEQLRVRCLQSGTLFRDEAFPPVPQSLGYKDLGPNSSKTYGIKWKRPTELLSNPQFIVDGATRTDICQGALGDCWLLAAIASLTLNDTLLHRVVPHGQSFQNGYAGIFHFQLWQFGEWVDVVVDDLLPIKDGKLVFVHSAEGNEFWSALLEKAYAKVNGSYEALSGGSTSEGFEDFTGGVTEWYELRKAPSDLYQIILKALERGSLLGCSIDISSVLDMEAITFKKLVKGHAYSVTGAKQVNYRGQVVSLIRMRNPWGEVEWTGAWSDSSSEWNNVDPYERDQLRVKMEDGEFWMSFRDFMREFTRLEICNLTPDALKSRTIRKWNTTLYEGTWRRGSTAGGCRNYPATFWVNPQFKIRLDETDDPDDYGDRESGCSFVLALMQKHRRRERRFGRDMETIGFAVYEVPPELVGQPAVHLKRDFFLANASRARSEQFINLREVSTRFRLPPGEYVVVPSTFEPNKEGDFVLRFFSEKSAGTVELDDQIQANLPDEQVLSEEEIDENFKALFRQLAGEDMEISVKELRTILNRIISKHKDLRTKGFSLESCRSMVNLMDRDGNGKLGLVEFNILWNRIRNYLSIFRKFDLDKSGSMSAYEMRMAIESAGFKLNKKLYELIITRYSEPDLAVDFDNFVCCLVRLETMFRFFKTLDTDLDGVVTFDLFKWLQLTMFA
T3 sequence (P04632 1-268 partner): T1 sequence (P04632 1-268 partner)
Method in brief: as §1

[2] = Column E, read-out: SH-SY5Y + AMC IC50

IC50 (Human Calpain 2/NS1; Column B)	IC50 [1, 2]	IC50 (Human Calpain 9/NS1; Column C)	IC50 (Human Calpain 1/NS1; Column A)	IC50 (Human Calpain 2/NS1)	IC50 ([1]; read-out: SH-SY5Y + AMC IC50)	IC50 (Human Calpain 9/NS1)	IC50 (Human Calpain 1/NS1)	Molecule	IC50 ([1]; read-out: SH-SY5Y + AMC IC50, Column E)
< 3 µM	> 25 µM	< 3 µM	< 3 µM					O=C[C@H](Cc1ccccc1)NC(=O)c1scnc1-c1ccccc1 [Compound 6, (S)—N-(1-oxo-3-phenylpropan-2-yl)-4-phenylthiazole-5-carboxamide]	
< 3 µM	10 to 25 µM	< 3 µM	< 3 µM					O=C[C@H](Cc1ccccc1)NC(=O)c1csnc1-c1ccccc1 [Compound 9, (S)—N-(1-oxo-3-phenylpropan-2-yl)-3-phenylisothiazole-4-carboxamide]	
< 3 µM	10 to 25 µM	< 3 µM	< 3 µM					Cc1nc(-c2ccccc2)c(C(=O)N[C@@H](Cc2ccccc2)C(=O)C(N)=O)s1 [Compound 25, (S)—N-(4-amino-3,4-dioxo-1-phenylbutan-2-yl)-2-methyl-4-phenylthiazole-5-carboxamide]	
< 3 µM	< 10 µM	< 3 µM	< 3 µM					Cc1cc(C(=O)N[C@@H](Cc2ccccc2)C(=O)C(N)=O)n(-c2cccc(C(F)(F)F)n2)n1 [Compound 59]	
< 3 µM	> 25 µM	< 3 µM	< 3 µM					Cn1cc(C(=O)N[C@@H](Cc2ccccc2)C(=O)C(N)=O)c(-c2cccc(OC(F)(F)F)c2)n1 [Compound 184, (S)—N-(4-amino-3,4-dioxo-1-phenylbutan-2-yl)-1-methyl-3-(3-(trifluoromethoxy)phenyl)-1H-pyrazole-4-carboxamide]	
< 3 µM	> 25 µM	> 10 µM	< 3 µM					Cc1cc(C(=O)N[C@@H](Cc2ccccc2)C(=O)C(=O)NC2CC2)n(-c2nc(-c3ccccc3)cs2)n1 [Compound 203, (S)—N-(4-(cyclopropylamino)-3,4-dioxo-1-phenylbutan-2-yl)-3-methyl-1-(4-phenylthiazol-2-yl)-1H-pyrazole-5-carboxamide]	
< 3 µM	> 25 µM	< 3 µM	< 3 µM					Cc1cc(C(=O)N[C@@H](Cc2ccccc2)C(=O)C(N)=O)n(-c2cccc(-c3ccccc3F)c2)n1 [Compound 214, (S)—N-(4-amino-3,4-dioxo-1-phenylbutan-2-yl)-1-(2′-fluoro-[1,1′-biphenyl]-3-yl)-3-methyl-1H-pyrazole-5-carboxamide]	
< 3 µM	> 25 µM	< 3 µM	< 3 µM					NC(=O)C(=O)[C@H](Cc1ccccc1)NC(=O)c1cc(Cl)sc1-c1ccccc1 [Compound 271, (S)—N-(4-amino-3,4-dioxo-1-phenylbutan-2-yl)-5-chloro-2-phenylthiophene-3-carboxamide]	
< 3 µM	10 to 25 µM	< 3 µM	< 3 µM					NC(=O)C(=O)[C@H](Cc1ccccc1)NC(=O)c1cc(Cl)nn1-c1ccccc1 [Compound 281, (S)—N-(4-amino-3,4-dioxo-1-phenylbutan-2-yl)-3-chloro-1-phenyl-1H-pyrazole-5-carboxamide]	
< 3 µM	> 25 µM	< 3 µM	< 3 µM					C[C@@H]1C[C@@H](C(=O)NC(Cc2ccccc2)C(=O)C(N)=O)N(c2ccccc2)C1 (stereo partly drawn) [Compound 292, (2S,4R)—N-(4-amino-3,4-dioxo-1-phenylbutan-2-yl)-4-methyl-1-phenylpyrrolidine-2-carboxamide]	
				< 3 µM	< 10 µM	< 3 µM	< 3 µM	NC(=O)C(=O)[C@H](Cc1ccccc1)NC(=O)c1cc(C(F)(F)F)nn1-c1ccccc1 [Compound 305, (S)—N-(4-amino-3,4-dioxo-1-phenylbutan-2-yl)-1-phenyl-3-(trifluoromethyl)-1H-pyrazole-5-carboxamide]	
				3 to 10 µM	< 10 µM	3 to 10 µM	3 to 10 µM	NC(=O)C(=O)[C@H](Cc1ccccc1)NC(=O)c1cc(C2CC2)nn1-c1ccccc1 [Compound 306, (S)—N-(4-amino-3,4-dioxo-1-phenylbutan-2-yl)-3-cyclopropyl-1-phenyl-1H-pyrazole-5-carboxamide]	
				< 3 µM	> 25 µM	< 3 µM	< 3 µM	NC(=O)C(=O)[C@H](Cc1ccccc1)NC(=O)[C@@H]1CCCN1c1ccccc1 [Compound 308, (S)—N—((S)-4-amino-3,4-dioxo-1-phenylbutan-2-yl)-1-phenylpyrrolidine-2-carboxamide]	
< 3 µM		< 3 µM	< 3 µM					Cc1cc(C(=O)NC(Cc2ccccc2)C(=O)C(=O)NC2CC2)n(-c2ccncc2)n1 (centres unmarked) [compound 210]	
< 3 µM		< 3 µM	< 3 µM					(S)—N-(4-amino-1-(3,5-dimethylphenyl)-3,4-dioxobutan-2-yl)-3-methyl-5-phenylisoxazole-4-carboxamide [Compound 98]	
				< 3 µM		3 to 10 µM	< 3 µM	(S)—N-(4-amino-3,4-dioxo-1-phenylbutan-2-yl)-1-(tert-butyl)-3-methyl-1H-pyrazole-5-carboxamide [Compound 310]	
				< 3 µM		3 to 10 µM	< 3 µM	(S)—N-(4-amino-3,4-dioxo-1-phenylbutan-2-yl)-4-chloro-1-ethyl-3-methyl-1H-pyrazole-5-carboxamide [Compound 312]	
				< 3 µM		< 3 µM	< 3 µM	N-(4-amino-3,4-dioxo-1-phenylbutan-2-yl)-3-(isoquinolin-3-yl)-1-methyl-1H-pyrazole-4-carboxamide [Compound 629]	

Molecule	IC50 (Human Calpain 2/NS1; Column B)	IC50 [1, 2]	IC50 (Human Calpain 9/NS1; Column C)	IC50 (Human Calpain 1/NS1; Column A)	IC50 (Human Calpain 2/NS1)	IC50 ([1]; read-out: SH-SY5Y + AMC IC50)	IC50 (Human Calpain 9/NS1)	IC50 (Human Calpain 1/NS1)	IC50 ([1]; read-out: SH-SY5Y + AMC IC50, Column E)
COC(=O)NCc1cccc(-n2nc(C)cc2C(=O)N[C@@H](Cc2ccccc2)C(=O)C(N)=O)c1 [Compound 140, Methyl (S)-(3-(5-((4-amino-3,4-dioxo-1-phenylbutan-2-yl)carbamoyl)-3-methyl-1H-pyrazol-1-yl)benzyl)carbamate]	< 3 µM		< 3 µM	< 3 µM					10 to 25 µM
